Values joined by “and” are separate entries in the source; they are usually repeats but may differ in a detail not shown here. Equal values may be shown once. “Also recorded” adds a separate entry of the source. Ends that are not written are not given here.
What was measured:
[1] = test system: subcutaneous human osteosarcoma MG-63 xenograft tumor; test: Detection of human osteosarcoma MG-63 cell cycle in nude mice; assay type: in vivo; settings: positive control Paclitaxel group (10 mg/kgBW twice a week)
Experimental: (B) Detection of Human Osteosarcoma MG-63 Cell Cycle in Nude Mice
1. Preparation of Single Cell Suspension of Solid Tumor
1.1 Tumor block was washed 3 times with PBS buffer and cut into small blocks (1-2 mm), then washed 3 times with PBS, and transferred into a 50 ml centrifuge tube.
1.2 0.25% trypsin solution was added to digested at 37′C for 20-40 min, and gently shaken once every 5 min, to separate cells. 1.3 2 to 5 ml of serum-containing medium was added to terminate the trypsin digestion.
1.4 The suspension was stood for 2-3 min, and transferred to a new centrifuge tube, and filtered with a 200-mesh nylon mesh twice.
1.5 The filtered suspension was centrifuged at 1000 rpm for 5 min, and removed the supernatant.
1.6 5 ml of PBS buffer was added to centrifuge again, and removed the supernatant.
1.7 1 to 2 ml of culture solution was added according to the amount of cells, and the cells were counted for standby.
2. Detection of Cell Cycle
1) The cell culture solution was collected into a centrifuge tube for standby. […]
5) Flow cytometry detection and analysis: the red fluorescence was detected by a flow cytometer at the excitation wavelength of 488 nm, and the light scattering was detected also. […]

[2] = Animal acute toxicity test, maximal tolerable dose (MTD); assay type: in vivo, ICR mice; settings: for Mice weight: 700 mg/kg BW dose group
Experimental: Embodiment 8 Animal Acute Toxicity Test—Maximal Tolerable Dose (MTD)
I. Experimental Conditions: GLP
1. Test animal: Healthy adult ICR mice, male, weight 19-20 g, n=10;
3. Test sample preparation method;
4. Administration route: tail vein injection in mice;
5. Dosing volume: 0.5 ml/time;
6. Frequency of administration: in accordance with FDA guidelines;
Acute toxicity refers to the toxic reaction produced by a drug within a certain period of time after a single dose or multiple-dose within 24 hours. In narrow sense, a single dose toxicity study is to investigate the acute toxic reactions after a single administration of a test substance. This guideline refers to single dose toxicity study in a broad sense, which can be obtained by single or multiple dosing within 24 hours;
II. Detection of Maximal Tolerable Dose (MTD)
Firstly, the working solutions at three concentrations that would not cause the death of test animals were prepared, and one animal was injected via tail veins (1.5 mL, by 3 times). The first dose was 1.5 mL of working solution with 1150 mg/kgBW, which was injected to mice by 3 times via tail veins within 24 hours. On the next day, if no death was found, the remaining 9 animals were injected with the same dose via tail veins (a total of n=10); if the first animal died, the dose would be reduced.

[3] = Body weight and death of tumor-bearing nude mice in the in vivo efficacy test; design: species or system BALB/c nude mice; settings: each treatment group, 4 weeks intravenous administration
Experimental: 4-1. Nude mice were randomly divided into 5 groups: model group, positive control group, sp4 low-dose group, sp4 medium-dose group, and sp4 high-dose group, 6 mice each group (low-dose group: 4 mg/kgBW; medium-dose group: 8 mg/kgBW; high-dose group: 16 mg/kgBW; model group: injected with an equal volume of normal saline; positive control group: injected with paclitaxel at 10 mg/kgBW; administrated twice a week).
4-2. after divided into groups, animals were injected via tail veins at 4:00 pm every day; mice in the model group and the administration group were respectively injected with normal saline and drugs for 4 weeks, and the paclitaxel group was administered paclitaxel twice a week.
4-3, measured the tumor size and body weight on the day of grouping and every other day; TV=0.5*a*b^2, a represents long diameter, b represents short diameter.

CC(=O)O[C@H]1C(=O)[C@@]2(C)[C@H]([C@H](OC(=O)c3ccccc3)[C@]3(O)C[C@H](OC(=O)[C@H](O)[C@@H](NC(=O)c4ccccc4)c4ccccc4)C(C)=C1C3(C)C)[C@]1(OC(C)=O)CO[C@@H]1C[C@@H]2O [Paclitaxel]
cell cycle effect in subcutaneous human osteosarcoma xenograft tumor models [1]: significant G1 phase arrest

FLFSLIPSAISG [sp4]
Mice weight ([2]; individual mice No. 1-10, 2018 May 15): 20.5 g and 20.2 g (2×) and 20.6 g and 20.7 g and 20.4 g and 20.9 g and 20.1 g and 20 g and 20.3 g | Mice weight ([2]; individual mice No. 1-10, 2018 May 16): 20.5 g (3×) and 20.7 g and 21.3 g and 21.2 g and 20.8 g and 20.4 g (2×) and 21.5 g | Mice weight ([2]; individual mice No. 1-10, 2018 May 17): 21.1 g (3×) and 21.7 g and 21.3 g and 21.4 g and 20.8 g (2×) and 22.2 g and 21.2 g | Mice weight ([2]; individual mice No. 1-10, 2018 May 18): 21.5 g (3×) and 22.1 g and 21.9 g (3×) and 21.7 g and 22.7 g and 21.1 g | Mice weight ([2]; individual mice No. 1-10, 2018 May 19): 21.9 g and 21.6 g and 22.6 g (2×) and 22.5 g (3×) and 21.8 g (2×) and 23 g | Mice weight ([2]; individual mice No. 1-10, 2018 May 20): 22.3 g and 22.8 g (5×) and 22.4 g and 23.7 g and 22.9 g and 22.5 g | Mice weight ([2]; individual mice No. 1-10, 2018 May 21): 22.7 g and 22.9 g (2×) and 23.5 g and 23.1 g (3×) and 24.1 g and 23.3 g and 23.4 g | Mice weight ([2]; individual mice No. 1-10, 2018 May 22): 23.3 g and 23.5 g (2×) and 24.1 g and 23.6 g and 23.2 g and 24.8 g and 23.8 g (2×) and 23.4 g | Mice weight ([2]; individual mice No. 1-10, 2018 May 23): 24.0 g and 24.1 g (2×) and 24.8 g and 24.2 g (2×) and 23.7 g and 25.1 g and 24.5 g and 24.4 g | Mice weight ([2]; individual mice No. 1-10, 2018 May 24): 24.7 g (4×) and 25.2 g and 23.9 g and 25.6 g and 25.1 g and 24.8 g and 24.6 g | Mice weight ([2]; individual mice No. 1-10, 2018 May 25): 25.3 g and 25.5 g (2×) and 25.8 g and 25.1 g (3×) and 24.8 g and 26.1 g and 24.9 g | Mice weight ([2]; individual mice No. 1-10, 2018 May 26): 25.8 g and 25.9 g (3×) and 26.3 g and 25.6 g (2×) and 25.2 g and 26.5 g and 25.5 g | Mice weight ([2]; individual mice No. 1-10, 2018 May 27): 26.1 g and 26.2 g (2×) and 26.8 g and 26.3 g (2×) and 26.4 g and 27.2 g and 26 g and 25.8 g | Mice weight ([2]; individual mice No. 1-10, 2018 May 28): 27.2 g and 27.1 g and 27.3 g and 26.9 g and 26.8 g (3×) and 27.7 g and 26.4 g and 26.6 g | Mice weight ([2]; individual mice No. 1-10, 2018 May 29): 28.1 g and 27.9 g and 28.5 g and 27.2 g and 27.6 g and 27.5 g (2×) and 28.3 g and 27.1 g (2×) | Survival Rate % ([2]; 700 mg/kg, 3 times/9 h, n=10): 100% | toxic reactions and deaths within 2 weeks after administration ([2]; ICR mice, 700 mg/kgBW intravenous): no toxic reactions and deaths occurred; also recorded: no behavioral abnormalities and deaths were observed | toxic reactions and deaths within 24 hours ([2]; ICR mice, 700 mg/kgBW intravenous, three times within 24 h): no toxic reactions and deaths occurred; also recorded: no toxic reaction and death were observed | Survival or not ([2]; individual animals No. 1-10, 700 mg/kg, 3 times/9 h): Survival | MTD at 336 h ([2]; male, mouse, in vivo, iv, ICR mice, tail vein injection, administered by three times within 24 h): 700 mg/kg | death in the in vivo efficacy test [3]: no death occurred | weight gain of tumor-bearing nude mice vs control group ([3]; P>0.05): not significantly different

From patent publication US11939399B2, “Synthetic peptide sp4 and use thereof” (TAIAN CITY QIHANG BIOTECHNOLOGY CO., priority 2018, dated 2024)
